Source: ChEMBL document CHEMBL1201862, “PubChem BioAssay data set” (2004)
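Compound exposure: 48 hours, 5 concentrations, 96-well plates. GI50: concentration for 50% inhibition of growth.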 Activity calls are given as the source filed them. Cut-off read from the data, not from the text of the source: active = GI50 up to about 1.1 µM and inactive = higher.

What was measured:
Experiment in all cases: inhibition of tumour cell growth, NCI panel, 48 h
[1] = tested on: UACC-257
[2] = tested on: SNB-75
[3] = tested on: 786-0
[4] = tested on: HCT-116
[5] = tested on: NCI-H23
[6] = tested on: M14
[7] = tested on: HOP-92
[8] = tested on: SW-620
[9] = tested on: HOP-62
[10] = tested on: TK-10
[11] = tested on: SK-MEL-5
[12] = tested on: ACHN
[13] = tested on: IGROV-1
[14] = tested on: OVCAR-3
[15] = tested on: EKVX

`CC1CC2C3CC(F)C4=CC(=O)C=CC4(C)C3(F)C(O)CC2(C)C1(O)C(=O)CO` (configuration not stated) was tested, and the GI50 [1] was > 100 µM (inactive), the GI50 [2] was > 100 µM (inactive) and the GI50 [3] was > 100 µM (inactive). For the same molecule, the GI50 [4] was > 100 µM (inactive), the GI50 [5] was > 100 µM (inactive) and the GI50 [6] was > 100 µM (inactive). For the same molecule, the GI50 [7] was > 100 µM (inactive), the GI50 [8] was > 100 µM (inactive) and the GI50 [9] was > 100 µM (inactive). The GI50 [10] was > 100 µM (inactive), the GI50 [11] was > 100 µM (inactive) and the GI50 [12] was > 100 µM (inactive). The GI50 [13] was > 100 µM (inactive), the GI50 [14] was > 100 µM (inactive) and the GI50 [15] was > 100 µM (inactive).

With `COC(=O)c1c/c(=N\NC(=O)CC(=O)Nc2ccccc2OC)c2ccccc2o1` the GI50 [2] was > 100 µM (inactive), the GI50 [3] was 66.4 µM (inactive) and the GI50 [4] was > 100 µM (inactive). The GI50 [5] was > 100 µM (inactive), the GI50 [6] was > 100 µM (inactive) and the GI50 [8] was > 100 µM (inactive). The GI50 [9] was > 100 µM (inactive), the GI50 [10] was > 100 µM (inactive) and the GI50 [11] was 91.8 µM (inactive). The GI50 [12] was > 100 µM (inactive), the GI50 [13] was > 100 µM (inactive) and the GI50 [14] was > 100 µM (inactive). For the same molecule, the GI50 [15] was > 100 µM (inactive).

In the case of `O=C1CC(c2ccc(Cl)cc2)=Nc2ccccc2N1`, the GI50 [1] is reported as 80.7 µM (inactive), the GI50 [2] is reported as 20.6 µM (inactive) and the GI50 [3] is reported as 36.1 µM (inactive). For the same molecule, the GI50 [4] was 28.6 µM (inactive), the GI50 [5] was 65.8 µM (inactive) and the GI50 [6] was > 100 µM (inactive). The GI50 [7] was 26.4 µM (inactive), the GI50 [8] was 18.8 µM (inactive) and the GI50 [9] was 40.6 µM (inactive). The GI50 [10] was 43.3 µM (inactive), the GI50 [11] was > 100 µM (inactive) and the GI50 [12] was 69.5 µM (inactive). For the same molecule, the GI50 [13] was > 100 µM (inactive), the GI50 [14] was 84.9 µM (inactive) and the GI50 [15] was 47.3 µM (inactive).

In the case of `N=C(N)n1ncc(Cl)c(Cl)c1=O`, the GI50 [1] is reported as 2.13 µM (inactive), the GI50 [2] is reported as 2.99 µM (inactive) and the GI50 [3] is reported as 2.76 µM (inactive). For the same molecule, the GI50 [4] was 1.73 µM (inactive), the GI50 [5] was 2.45 µM (inactive) and the GI50 [6] was 1.98 µM (inactive). For the same molecule, the GI50 [7] was 2.43 µM (inactive), the GI50 [8] was 1.88 µM (inactive) and the GI50 [10] was 19.4 µM (inactive). For the same molecule, the GI50 [11] was 4.39 µM (inactive), the GI50 [12] was 3.81 µM (inactive) and the GI50 [13] was 11.1 µM (inactive). For the same molecule, the GI50 [14] was 1.91 µM (inactive) and the GI50 [15] was 2.36 µM (inactive).

With `CC1CC[C@]2(C(=O)O)CCC3(COC(=O)/C=C\c4ccc(O)cc4)C(=CCC4[C@@]5(C)CC[C@H](O)C(C)(C)C5CC[C@]43C)[C@@H]2[C@H]1C` (some centres not stated) the GI50 [1] was 31 µM (inactive), the GI50 [2] was 27.7 µM (inactive) and the GI50 [3] was 21.3 µM (inactive). For the same molecule, the GI50 [4] was 17.5 µM (inactive), the GI50 [5] was 13.9 µM (inactive) and the GI50 [6] was 17.6 µM (inactive). For the same molecule, the GI50 [8] was 27.9 µM (inactive), the GI50 [10] was 21.7 µM (inactive) and the GI50 [11] was 18.2 µM (inactive). The GI50 [12] was 10.4 µM (inactive), the GI50 [13] was 11.5 µM (inactive) and the GI50 [14] was 18.2 µM (inactive). The GI50 [15] was 16.7 µM (inactive).

For `C/C(=N\Nc1ccc([N+](=O)[O-])cc1)C(=O)N(C)Nc1ccccc1`, the GI50 [1] was 31.6 µM (inactive), the GI50 [2] was 27.6 µM (inactive) and the GI50 [3] was > 100 µM (inactive). The GI50 [5] was 58.5 µM (inactive), the GI50 [6] was 43.2 µM (inactive) and the GI50 [7] was 53.7 µM (inactive). The GI50 [8] was > 100 µM (inactive), the GI50 [9] was > 100 µM (inactive) and the GI50 [10] was 64.3 µM (inactive). For the same molecule, the GI50 [12] was 35.4 µM (inactive), the GI50 [13] was 58.9 µM (inactive) and the GI50 [14] was 43.9 µM (inactive). The GI50 [15] was 34.5 µM (inactive).

`CN(C)CCNc1ccc2ncn3c4ccccc4c(=O)c1c23` was tested, and the GI50 [1] was 2.97 µM (inactive), the GI50 [2] was 3.25 µM (inactive) and the GI50 [3] was 2.03 µM (inactive). For the same molecule, the GI50 [4] was 0.459 µM (active), the GI50 [5] was 3.32 µM (inactive) and the GI50 [6] was 3.11 µM (inactive). For the same molecule, the GI50 [7] was 2.3 µM (inactive), the GI50 [8] was 0.826 µM (active) and the GI50 [9] was 4.46 µM (inactive). For the same molecule, the GI50 [10] was 2.93 µM (inactive), the GI50 [11] was 2.74 µM (inactive) and the GI50 [12] was 1.26 µM (inactive). The GI50 [13] was 2.42 µM (inactive) and the GI50 [14] was 7.76 µM (inactive).

In the case of `O=C(Nc1ccc(Cl)c(Cl)c1)C1C(=O)N(c2ccc(Cl)c(Cl)c2)C(=O)/C1=N\O` (configuration not stated), the GI50 [1] is reported as 51.2 µM (inactive), the GI50 [2] is reported as > 100 µM (inactive) and the GI50 [3] is reported as 44.5 µM (inactive). The GI50 [4] was 32.6 µM (inactive), the GI50 [5] was > 100 µM (inactive) and the GI50 [6] was 22.9 µM (inactive). For the same molecule, the GI50 [7] was > 100 µM (inactive), the GI50 [8] was 49 µM (inactive) and the GI50 [9] was > 100 µM (inactive). For the same molecule, the GI50 [10] was > 100 µM (inactive), the GI50 [11] was > 100 µM (inactive) and the GI50 [12] was > 100 µM (inactive). For the same molecule, the GI50 [13] was > 100 µM (inactive), the GI50 [14] was > 100 µM (inactive) and the GI50 [15] was 39.6 µM (inactive).

With `CC12CCC[C@@](C)(C(=O)OC3OC(CO)C(O)C(O)C3O)[C@H]1CCC13CC4CC(OC4(CO)[C@H]1O)[C@@H]23` (some centres not stated) the GI50 [1] was > 100 µM (inactive), the GI50 [2] was > 100 µM (inactive) and the GI50 [3] was > 100 µM (inactive). For the same molecule, the GI50 [4] was > 100 µM (inactive), the GI50 [5] was > 100 µM (inactive) and the GI50 [6] was > 100 µM (inactive). The GI50 [7] was > 100 µM (inactive), the GI50 [8] was 14.5 µM (inactive) and the GI50 [9] was > 100 µM (inactive). For the same molecule, the GI50 [10] was > 100 µM (inactive), the GI50 [11] was > 100 µM (inactive) and the GI50 [12] was > 100 µM (inactive). For the same molecule, the GI50 [13] was > 100 µM (inactive), the GI50 [14] was > 100 µM (inactive) and the GI50 [15] was > 100 µM (inactive).
